Patent publication US20230226198A1, “Artemisinin Derivatives” (DA ZEN THERANOSTICS, INC., priority 2019, published 2023)
“Also recorded” adds a separate entry of the source.

Tests used:
[1] = system: human prostate tumors (22Rv1 cells); experiment: Human prostate tumor model, subcutaneous 22Rv1 tumors in nude mice; assay type: in vivo, athymic nude mice
Method: Example 4 A/B: Human cancer cells are subcutaneously (s.c.) implanted (1×10^6) into 4- to 6-week-old athymic nude mice (National Cancer Institute). When tumor sizes in the mice reach between 1 and 6 mm in diameter as assessed by in vivo bioluminescence imaging or by palpation, mice are injected once or multiple times i.p. with the drug, e.g. DZ3a, DHA or o THAD. For mice bearing 22Rv1 tumors, DZ3a (2, 4, 8 and 16 mg/kg) or DHA (e.g. 4.7 mg/kg) is injected twice a week for 5.5 weeks. Whole body optical imaging is taken at 24 hours or as indicated using a Kodak Imaging Station 4000 MM equipped with fluorescent filter sets (excitation/emission, 800:850 nm), with a field of view of 120 mm in diameter, a frequency rate for NIR excitation light of 2 mW/cm^2, and the following camera settings; maximal gain, 2-2 binning, 1,024×1,024 pixel resolution, exposure time of 5 seconds. Live mice are alternatively/additionally imaged by an Olympus OV100 Whole Mouse Imaging System (excitation, 762 nm; emission, 800 nm; Olympus Corp.), containing a MT-20 light source (Olympus Biosystems) and DP70 CCD camera (Olympus). Before imaging, mice are anesthetized with isoflurane (2.5 units), and maintained in an anesthetized state during imaging. Alternatively, a THAD may be compared to DZ3a. […]

MDVR cells [2] = experiment: Monobromobimane (mBBr) staining, cellular GSH levels; assay type: cell-based, human; conditions: 8 h, listed as DZ-003
Method: Example 5G: Cancer cells (here MDVR) are treated with DZ1, DHA and/or a THAD (e.g. 6 uM each) for 8 h, followed by monobromobimane (mBBr) staining at 40 uM for 30 min at 37° C., and analyzed with flow cytometry to determine the cellular GSH levels. Flow cytometry analysis of mBBr fluorescence (green) is performed as described in example 5E above. Preliminary experiments indicate that the THAD as described herein may provide a similar or increased effect.

C4-2 MDVR cells = experiment: JC-1 staining, mitochondrial membrane potential by flow cytometry; assay type: cell-based, human; conditions: 5 uM, 16 h
Method: Example 5D: JC-1 staining and measuring JC-1 fluorescence is performed by flow cytometry to detect the ratio of green and red fluorescence. C4-2 MDVR cells are treated with vehicle (negative control), DHA (5 uM), and DZ-003 (5 uM) for 16 h, followed by JC-1 staining (2 uM) at 37° C. for 30 min, to determine the mitochondrial membrane potential by flow cytometry where JC-1 remains as a monomer in the cytosol that emits green fluorescence as an indication of depolarized membrane potential, and JC-1 forms aggregates in intact mitochondria that emits red fluorescence. […] Preliminary experiments indicate that the THAD as described herein may provide a similar or increased effect.

[3] = system: mitochondria and lysosomes of C4-2B MDVR cells; experiment: Confocal microscopy of Mitotracker/Lysotracker staining (subcellular localization); assay type: cell-based, human
Method: Subcellular localization (mitochondria, lysosomes) may be performed as follows: Uptake of DZ3a, THAD, controls or other dyes into mitochondria and lysosomes of cancer cells is determined by virtue of each compound constituting a dye or comprising a dye moiety. Cells are plated on live-cell imaging chambers (World Precision Instrument) overnight. Cells are exposed to the dyes at different concentrations, and dye uptake is evaluated by a Perkin-Elmer Ultraview ERS spinning disc confocal microscope mounted on a Zeiss Axiovert 200 m inverted microscope equipped with a 37° C. stage warmer, incubator, and constant CO2 perfusion. A 60× or 100× Zeiss oil objective (numerical aperture, 1.4) is used for live cell images, and a Z-stack is created using the attached piezoelectric z-stepper motor. The 633-nm laser line of an […] (set at 60% power) is used to excite the dye. Light emission at 650 nm is detected and found to correlate directly with the dye concentrations in the cells. For comparative studies, the exposure time and laser intensity are kept identical for accurate intensity measurements. Pixel intensity is quantified using Metamorph 6.1 (Universal Imaging), and the mean pixel intensity is generated as gray level using the Region Statistics feature on the software. […]

C4-2B MDVR cells = experiment: Annexin V / PI flow cytometry, cell death and apoptosis; assay type: cell-based, human; conditions: for induced cell death after pretreatment with OATP inhibitor: 2 h pretreatment with OATP inhibitor telmisartan (TMS); for induced cell death after pretreatment with Midivi or Nec-1: 2 h pretreatment with mitochondrial fission inhibitor (Midivi) or necroptosis inhibitor (Nec-1); for cell death / apoptosis (Annexin V / PI): C4-2B MDVR, e.g. 5 uM, 6 h
Method: Example 5E: Cancer cells (here C4-2B MDVR) are pretreated with OATP inhibitor telmisartan (TMS), mevalonate (MVA), Midivi (Drp-1 inhibitor), and necrostatin-1 (Nec-1) for 2 h before treatment with vehicle, DHA, DZ-003 and/or a THAD (e.g. 5 uM each) for 6 h. Cells are subjected to annexin v staining (10 ul/10^6 cells) in the dark at RT for 15-20 min followed by PI staining at 1 mg/ml to determine the apoptosis of the cells based on the PI (red) and Annexin V (green) fluorescence by flow cytometry analysis using SONY SA3800 Spectral Analyzer. […] The vehicle and DHA treated cells remain viable (lower-left quadrant; blue population indicates live cells).

MDVR cells [4] = experiment: C11-BODIPY (lipid peroxidation) and MitoSox (mitochondrial ROS) flow cytometry; assay type: cell-based, human; conditions: 8 h
Method: Example 5F: Cancer cells (here MDVR) are treated with DZ1, DHA and DZ-003 for 8 h, followed by C11-BODIPY staining for 30 min at 37° C. (lipid peroxidation) or MitoSox staining for 10 min at 37° C. […] Flow cytometry analysis is performed as described in example 5E above. […] Preliminary experiments indicate that the THAD as described herein may provide a similar or increased effects.

## C[C@@H]1CC[C@H]2[C@@H](C)C(OC(=O)CCCCCN3/C(=C/C=C4\CCCC(/C=C/C5=[N+](CCCCS(=O)(=O)[O-])c6ccccc6C5(C)C)=C4Cl)C(C)(C)c4ccccc43)O[C@@H]3OC4(C)CC[C@@H]1[C@]32OO4 (stereo in doubt) [DZ3a]
[1]; DZ-DHA-monoester 2 to 16 mg/kg, DHA 4.7 mg/kg, i.p. twice a week for 5.5 weeks, versus vehicle
  inhibition of tumor volume increase: similarly inhibit increase in tumor volume compared to the neg. control
[1]; about 2 mg/kg versus higher doses up to 16 mg/kg
  tumor inhibition, lowest dose versus higher doses: shows better tumor inhibition than other higher doses
MDVR cells [2]
  cellular GSH levels (mBBr fluorescence): decreases cellular antioxidant GSH levels; also recorded: Decreased cellular GSH levels
C4-2 MDVR cells
  mitochondrial membrane potential (JC-1 fluorescence): induces depolarization of mitochondrial membrane potential
[3]
  co-localization with mitochondria and lysosomes: co-localizes with mitochondria and lysosomes; also recorded: exclusive targeting to mitochondria and lysosomes
C4-2B MDVR cells
  induced cell death after pretreatment with OATP inhibitor: partially inhibited by an OATP inhibitor (TMA)
  induced cell death after pretreatment with Midivi or Nec-1: blocked by mitochondrial fission (Midivi) and necroptosis inhibitors (Nec-1)
  cell death / apoptosis (Annexin V / PI): induces cell death
C4-2B MDVR cells; listed as DZ-003
  induced cell death after pretreatment with OATP inhibitor: can be partially inhibited by an OATP inhibitor (TMS)
  induced cell death after pretreatment with Midivi or Nec-1: can be blocked by mitochondrial fission (Midivi) and necroptosis inhibitor (Nec-1)
  cell death / apoptosis (Annexin V / PI): induced cell death
C4-2B MDVR cells; 2 h pretreatment with mevalonate (MVA)
  induced cell death after pretreatment with mevalonate (MVA): not so much by mevalonic acid (MVA)
MDVR cells [4]
  lipid peroxidation (C11-BODIPY fluorescence): induces lipid peroxidation
